The structures appear in SMILES notation. ≈ marks a conversion by molar mass, not a printed value. Where “and” joins values, the source holds several entries; their conditions need not be identical. Equal entries are not always repeated. Structures can show the parent of a compound that is named as a salt.

The values below come from publication PMC3951423, “Structural Bases of Norovirus RNA Dependent RNA Polymerase Inhibition by Novel Suramin-Related Compounds” (PLoS ONE, 2014).

Data set [1] is described as follows: Water solubility (Bookser's method). Type of data set: physicochemical. Conditions: thermodynamic from solid, deionized water, saturated solution. The source says:
(§1) Bookser's method was applied to obtain the water solubility of sodium organosulphonates 3–8 and Suramin (9) by use of HPLC with a UV detector (see Table 1). Furthermore, the “shake–flask method” [28] was applied to obtain their hydrophobicity by use of n-octanol and water. The apparent partition coefficient (P) shown in Table 1 is the ratio of the concentration in n-octanol to the total concentration (i.e., ionized plus non-ionized) of the species in the aqueous phase, [29].
A stock solution was prepared by dissolving a precisely weighed amount of Suramin derivatives in deionized water (1.0 ml). The UV absorption maximum of each compound was measured by dilution of the solution with deionized water as necessary. A saturated solution of each compound was then prepared by use of deionized water (1.0 ml) in the presence of an excess of Suramin derivatives for 1.0 hour. The obtained saturated solution was filtered to remove solid compound through a Millipore filter (0.45 μm) and was scanned by UV spectroscopy at the wavelength of the absorption maximum previously determined.

Data set [2] can be described thus: n-Octanol/water partition coefficient (shake-flask method). The format is physicochemical. Particulars: n-octanol / pH 7.4 phosphate buffer, 25 °C, average of three experiments, read-out: hydrophobicity log P.
Text: as §1
The n-octanol/water partition coefficient of Suramin derivatives was determined by the shake-flask method. n-Octanol and pH 7.4 phosphate buffer were mutually saturated for 4.0 hours, and the phases were separated. A stock solution of each Suramin derivative was prepared using pH 7.4 phosphate buffer solution. Suramin derivatives were partitioned between n-octanol and pH 7.4 phosphate buffer. Then the phase mixtures were shaken for 1 hour at constant 25 °C. After separation, the absorbance of the phosphate buffer solutions (pH 7.4) was measured by UV spectrophotometry. Three replicates were performed for each compound. The P value corresponded to the quotient between n-octanol and buffer concentrations of the drug. The log P values were an average of three independent experiments.

The target of data set [3] is T1, hNV-RdRp (Norovirus GII (human norovirus; Norwalk-like virus), UniProt A0ZNP5). The data set can be described thus: In-vitro RdRp inhibition assay (PicoGreen fluorescence, poly(C)/oligoG12). Conditions: poly(C) template, G12 primer, GTP 100 μM; read-out: IC50 hNVRdRp. Type of data set: biochemical. On the procedure:
(§2) hNV and mNV-RdRp inhibition assays were performed monitoring the impairment of RNA synthesis as a function of inhibitor concentration, as previously described. Briefly, RdRp activity was assessed in vitro (measuring PicoGreen fluorescence) following the synthesis of double-stranded RNA from a single-stranded RNA poly(C) template annealed with a G12 primer. The assay can easily be adapted for any viral RNA polymerase.
(§3) RdRp assays were performed as previously described. In brief poly(C) (MP Biomedicals) was used as template annealed with oligoG12 as primer (62.5 nM final concentration) and GTP (100 μM final concentration) as substrate, in a 200 μl reaction mixture containing 20 mM Tris/HCl pH 7.5, 25 mM NaCl, 5 mM MgCl2, 0.3 mM MnCl2, 1 mM DTT, PicoGreen Quantitation Reagent (Molecular Probes) diluted 1/200 20 U ml−1 RiboLock Ribonuclease Inhibitor (Fermentas). Reactions were started by the addition of GTP following the fluorescence of samples in a fluorescence reader (Varian, Cary Eclipse Fluorescence Spectrophotometer).

Data set [4] addresses T2, mNV-RdRp (Norovirus, UniProt Q80J95).
T2 construct: Solutions of 4 μl of the NV-RdRp domain (final hNV-RdRp concentration 7 μM, final mNV-RdRp concentration 1.6 μM); made in house
The data set is described as above. Type of data set: biochemical. Particulars: poly(C) template, G12 primer, GTP 100 μM; read-out: IC50 mNVRdRp. On the procedure:
as §2, §3

Data set [5] deals with T1, hNV-RdRp. The data set can be described thus: Thermofluorimetric (thermal shift) assay. The format is binding. Particulars: inhibitor 4 μM, hNV-RdRp 7 μM, Sypro Orange; free enzyme Tm 41.5. The protocol:
(§4) In order to exclude that 8 and 6 inhibition might be linked to some form of RdRp destabilization/aggregation/denaturation, a process generally reflected by a variation of the protein melting temperature (Tm), we performed thermofluorimetric assays on free and inhibited NV-RdRps.
(§5) Thermofluorimetric (Thermal shift) assays for the evaluation of the hNV-RdRp melting temperature (Tm) in the absence/presence of the inhibitors, were conducted in a MiniOpticon Real Time PCR Detection System (Bio-Rad), using the fluorescent dye Sypro Orange. Solutions of 4 μl of the NV-RdRp domain (final hNV-RdRp concentration 7 μM, final mNV-RdRp concentration 1.6 μM) were diluted in 9.5 μl of its buffer, and mixed with 3.5 μl of Sypro orange (Sigma) diluted 60×, and 1 μl of 6 or 8 (4 μM final concentration). In control samples the inhibitors were replaced by water. The sample plates were heated from 20 to 90°C with a heating rate of 0.2 °C/min. Fluorescence intensities were measured within excitation/emission ranges of 470–505 nm and 540–700 nm, respectively.
(In general: Differential scanning fluorimetry follows unfolding on heating by fluorescence.)

Data set [6] concerns the target T2, mNV-RdRp. The data set can be described thus: Thermofluorimetric (thermal shift) assay. Type of data set: binding. Conditions: inhibitor 4 μM, mNV-RdRp 1.6 μM, Sypro Orange; free enzyme Tm 39.6 ±0.2. On the procedure: as §4, §5
The conditions of data set [7]: statement in the Introduction, no reference given; cited from earlier work.
In a further data set the test system is NV-RdRp. Further details: method as in earlier work. Conditions: ref 34 (Tarantino et al., in press); cited from earlier work.
Data set [8] in a line: Solubility in organic solvents (observation during synthesis). The format is physicochemical. Particulars: most organic solvents, including THF and DMSO.

`Cc1ccc(C(=O)Nc2ccc(S(=O)(=O)O)c3cccc(S(=O)(=O)O)c23)cc1[N+](=O)[O-]` [Compound 3, 4-(4-Methyl-3-nitrobenzamido)naphthalene-1,5-disulphonate Acid Disodium Salt]: the solubility (as a rule, the dissolved amount per volume that the medium holds) at 1 h in data set [1] is 260 mg/mL. Also, the logP at 1 h in [2] is -2.19. Also, the IC50 (in general, the midpoint of a concentration-inhibition curve) on hNV-RdRp [3] came out at 1280 ± 70 nM; on mNV-RdRp [4], 200 ± 10 nM.
In data set [1], `Cc1ccc(C(=O)Nc2ccc(S(=O)(=O)O)c3cccc(S(=O)(=O)O)c23)cc1NC(=O)c1cccc([N+](=O)[O-])c1` [Compound 6, 4-[4-Methyl-3-(3-nitrobenzamido)benzamido]naphthalene-1,5-disulsulphonate Acid Disodium Salt] had a solubility at 1 h of 179 mg/mL. Also, the logP at 1 h in data set [2] was -1.64. In addition, the IC50 came to 1000 ± 90 nM at hNV-RdRp [3] and 115 ± 15 nM on mNV-RdRp [4]. For the same compound, at hNV-RdRp [5], the “hNV-RdRp Tm in the presence of inhibitor” value was 41.2±0.2 °C. The “mNV-RdRp Tm in the presence of inhibitor” value at mNV-RdRp [6] is 39.4±0.3 °C.
Regarding `Cc1ccc(C(=O)Nc2ccc(S(=O)(=O)O)c3cc(S(=O)(=O)O)cc(S(=O)(=O)O)c23)cc1NC(=O)c1cccc(NC(=O)Nc2cccc(C(=O)Nc3cc(C(=O)Nc4ccc(S(=O)(=O)O)c5cc(S(=O)(=O)O)cc(S(=O)(=O)O)c45)ccc3C)c2)c1` [Suramin (9), Suramin], the solubility at 1 h in data set [1] was found to be 138 mg/mL (≈ 106 mM). The logP at 1 h in [2] is -3.42. The IC50 is 27 ± 3 nM at hNV-RdRp [3] and 70 ± 3 nM at mNV-RdRp [4]. The “log P” value in [7] was “lower than 0”.
In the case of `Cc1ccc(C(=O)Nc2ccc(S(=O)(=O)O)c3cccc(S(=O)(=O)O)c23)cc1N` [Compound 4, 4-(3-Amino-4-methylbenzamido)naphthalene-1,5-disulphonate Acid Disodium Salt], the solubility at 1 h in data set [1] stood at 339 mg/mL. Besides, in data set [2], the logP at 1 h is -2.33. Moreover, the IC50 on hNV-RdRp [3] was 1100 ± 200 nM; on mNV-RdRp [4], 160 ± 7 nM.
`Cc1ccc(C(=O)Nc2ccc(S(=O)(=O)O)c3cccc(S(=O)(=O)O)c23)cc1NC(=O)c1cccc(NC(=O)Nc2cccc(C(=O)Nc3cc(C(=O)Nc4ccc(S(=O)(=O)O)c5cccc(S(=O)(=O)O)c45)ccc3C)c2)c1` [Compound 8, 4-4′-(Carbonylbis[imino-3,1-phenylenecarbonylimino(4-methyl-3,1-phenylene)carbonylimino])bis-1,5-naphthalenedisulphonate Acid Tetrasodium Salt] came in with a solubility at 1 h in [1] of 114 mg/mL. The logP at 1 h in [2] was -1.61. Moreover, the 50% inhibitory concentration (IC50) at hNV-RdRp [3] is 28 ± 4 nM; at mNV-RdRp [4] it was ~60 nM and 60 nM. Besides, on hNV-RdRp [5], the “hNV-RdRp Tm in the presence of inhibitor” value stood at 41.4 °C. Also, the “mNV-RdRp Tm in the presence of inhibitor” value at mNV-RdRp [6] worked out at 39.8 ±0.2 °C.
On to `Cc1nc(N=Nc2cc(S(=O)(=O)O)c3cc([N+](=O)[O-])cc(S(=O)(=O)O)c3c2)c(COP(=O)(O)O)c(C=O)c1O` [PPNDS], for which the “inhibitory potency against NV-RdRp” value with NV-RdRp is on record as “low nM”.
Compound `Cc1ccc(C(=O)Nc2ccc(S(=O)(=O)O)c3cccc(S(=O)(=O)O)c23)cc1NC(=O)c1cccc(N)c1` [Compound 7, 4-[3-(3-Aminobenzamido)-4-methylbenzamido]naphthalene-1,5-disulphonate Acid Disodium Salt] came in with a solubility at 1 h in data set [1] of 249 mg/mL. In addition, in data set [2], the logP at 1 h is -2.11. In addition, the figures for the IC50 at hNV-RdRp [3] and at mNV-RdRp [4] were 1100 ± 50 nM and 160 ± 6 nM, respectively. Moreover, the “Solubility in organic solvents” value in data set [8] is recorded as “very poor”.
